The record followed here is patent US20080214845A1, “ANTIBACTERIAL 6'-MODIFIED 4,5-SUBSTITUTED AMINOGLYCOSIDE ANALOGS” (priority 2005, published 2008).

In brackets after ≈: the same amount, converted by molar mass.

In one assay the target is 18S. Put plainly: 18S Kd by FTICR mass spectrometry. In kind it is binding. As for the experimental part: (§1) Was performed according to the published report; […]-Lowery, […].; Mohan, […]. et al. Characterization of Low Affinity Complexes Between RNA and Small Molecules Using Electrospray Ionization Mass Spectrometry. J. Am. Chem. […] Screening is performed by measuring the formation of non-covalent complexes between a single ligand or ligand mixture and the appropriate RNA target, along with suitable control structured RNA target(s) simultaneously using a 9.4 T FT-ICR mass spectrometer as detector. Full experimental details of the assay have been described in related literature ([…]-Lowery, et al. in TrAC, Trends Anal. […] The abundances were integrated from the respective ions for free RNA and the ligand-RNA complex. […] The peak ratios are measured at each concentration, then a plot of complex/free RNA versus concentration of ligand added is fitted to a second (or higher) order binding polynomial to determine the KD.

The next assay deals with 16S. In words: Measurement of 16S Kd by FTICR mass spectrometry. The assay is classed as binding. The procedure: as §1
For assay [1], the system named is E. coli S30 bacterial extract (pBest Luc luciferase transcription/translation). In words: Coupled bacterial transcription/translation assay (T/T). In kind it is biochemical. To be noted: luciferase reporter, 35 minutes at 37° C., read-out: Trans/Trans IC50. As for the experimental part: The DNA template, pBest Luc™ (Promega), is a plasmid containing a reporter gene for firefly luciferase fused to a strong tac promoter and ribosome binding site. Messenger RNA from 1 μg pBestLuc was transcribed and translated in E. coli S30 bacterial extract in the presence or absence of test compound. Compounds were tested in a black 96 well microtiter plate with an assay volume of […]. Each test well contained: 5 μL test compound, 13 μL S30 premix (Promega), 4 μL 10× complete amino acid mix (1 mM each), 5 μL E. coli S30 extract and 8 μL of 0.125 μg/μL pBest Luc™. The transcription/translation reaction was incubated for 35 minutes at 37° C. followed by detection of functional luciferase with the addition of 30 μL LucLite™ (Packard). Light output was quantitated on a Packard TopCount.

For another assay, the system named is E. Coli. In words: Minimum inhibitory concentration (MIC), E. coli. The assay is classed as cell-based. To be noted: range of concentration, 20-24 hours at 37° C., A595; for MIC: Escherichia coli. The procedure: (§2) The assays are carried out in 150 μL volume in duplicate in 96-well clear flat-bottom plates. The bacterial suspension from an overnight culture growth in appropriate medium is added to a solution of test compound in 2.5% DMSO in water. Final bacterial inoculum is approximately 10^2-10^3 CFU/well. The percentage growth of the bacteria in test wells relative to that observed for a control wells containing no compound is determined by measuring absorbance at 595 nm (A595) after 20-24 hours at 37° C. The MIC is determined as a range of concentration where complete inhibition of growth is observed at the higher concentration and bacterial cells are viable at the lower concentration. Both ampicillin and tetracycline are used as antibiotic positive controls in each screening assay.

For a further assay, the system named is S. Aureus. Put plainly: Minimum inhibitory concentration (MIC), S. aureus. The settings on record: range of concentration, 20-24 hours at 37° C., A595; for MIC: Staphylococcus aureus. In kind it is cell-based. The procedure: as §2
The test system of assay [2] is Staphylococcus aureus (Smith strain ATCC 13709). In words: Staphylococcus aureus mouse protection assay. In kind it is in vivo. The settings on record: Staph conc. 10^6 IP in 10% mucin, treatments at 1 hour and 3 hour post infection. The procedure: Two of the novel aminoglycoside compounds of the invention were examined for their anitbacterial activity against staphylococcus aureus. The mice were infected IP with 0.5 ml […] staphylococcus aureus in 10% mucin. There were 10 mice in each treated group with treatments at 1 hour and 3 hour post infection. The Ibis compounds (IBIS00561085 R4═R5═CH3 and IBIS00561141 R4═H, R5═(CH2)2C6H5) were used at 75 mg/kg, 37.5 mg/kg, 18.8 mg/kg, 9.4 mg/kg, 4.7 mg/kg, 2.3 mg/kg, 1.17 mg/kg and 0.5 mg/kg. Amakacin, Paromomycin and Neomycin were used as the positive controls at concentration of 2 mg/kg, 1 mg/kg and 0.5 mg/kg.

Regarding `NCCCNC[C@H]1O[C@H](O[C@H]2[C@H](O[C@@H]3O[C@H](CO)[C@@H](O[C@H]4O[C@@H](CN)[C@@H](O)[C@H](O)[C@H]4N)[C@H]3O)[C@@H](O)[C@H](N)C[C@@H]2N)[C@H](N)[C@@H](O)[C@@H]1O` [IBIS00561096], the Kd on 18S stood at 1450 nM; at 16S, 1590 nM. Also, in assay [1], the IC50 was 175 nM. For the same molecule, the “MIC E. Coli.” value against E. Coli. lay within 2.5 to 5.0 µM. Further, the “MIC S. Aureus” value in the assay with S. Aureus lay in the range of 1.25 to 2.5 µM.

In the case of `NCCCCNC[C@H]1O[C@H](O[C@H]2[C@H](O[C@@H]3O[C@H](CO)[C@@H](O[C@H]4O[C@@H](CN)[C@@H](O)[C@H](O)[C@H]4N)[C@H]3O)[C@@H](O)[C@H](N)C[C@@H]2N)[C@H](N)[C@@H](O)[C@@H]1O` [IBIS00561140], the Kd was 6020 nM on 18S and 6260 nM on 16S. In addition, the IC50 in assay [1] is 32 nM. Moreover, the MIC in the assay on E. Coli. was in the range of 2.5 to 5 µM (≈ 1.71 to 3.43 µg/mL); with S. Aureus it was 10 to 20 µM (≈ 6.86 to 13.7 µg/mL).

Regarding `NCC1OC(OC2C(CO)OC(OC3C(O)C(N)CC(N)C3OC3OC(CNCCc4ccccc4)C(O)C(O)C3N)C2O)C(N)C(O)C1O` (stereo not shown) [IBIS00561141], the “# Dead mice/Total mice in group” value in assay [2] (0.5 mg/kg) is listed as 7/10 (10% Mucin); in assay [2] (1 mg/kg), 0/10 (10% Mucin); in assay [2] (2 mg/kg) it was 0/10 (10% Mucin); in assay [2] (4.5 mg/kg), 0/10 (10% Mucin); in assay [2] (9 mg/kg), 0/10 (10% Mucin); in assay [2] (18 mg/kg), 0/10 (10% Mucin). For the same molecule, the “# Dead mice/Total mice in group” value in assay [2] (37 mg/kg) and in assay [2] (75 mg/kg) was 0/10 (10% Mucin) throughout. In addition, the Kd on 18S was found to be 2160 nM; at 16S, 496 nM. For the same molecule, the IC50 in assay [1] turned out to be 200 nM. The “MIC E. Coli.” value against E. Coli. fell in the range of 1.25 to 2.5 µM. For the same molecule, the “MIC S. Aureus” value with S. Aureus fell in the range of 0.3125 to 0.625 µM.

Consider `NC[C@@H]1O[C@H](O[C@H]2[C@@H](O)[C@H](O[C@@H]3[C@@H](O)[C@H](N)C[C@H](N)[C@H]3O[C@H]3O[C@H](CN4CCOCC4)[C@@H](O)[C@H](O)[C@H]3N)O[C@@H]2CO)[C@H](N)[C@@H](O)[C@@H]1O` [IBIS00561142], for which the Kd at 18S was 3000 nM; at 16S, 3640 nM. Also, the IC50 in assay [1] came to 349 nM. The MIC fell in the range of 20 to 40 µM (≈ 13.7 to 27.4 µg/mL) with E. Coli. and 10 to 20 µM (≈ 6.85 to 13.7 µg/mL) in the assay on S. Aureus.

By Kd is commonly meant the concentration at which binding is half-saturated. Lower therefore signals a tighter complex. As a reminder, the MIC is the lowest concentration found to suppress growth.
